Measurements published in PubChem BioAssay AID192 (DTP/NCI, 2004).
Values joined by “and” are separate entries in the source; they are usually repeats but may differ in a detail not shown here. Identical values can stand only once. Toxic doses and inconclusive results are not listed.

System: BDF1 mice, B16 melanoma ip, median survival T/C
Assay: NCI In Vivo Anticancer Drug Screen. Data for tumor model B16 Melanoma (intraperitoneal) in B6D2F1 (BDF1) mice
Settings: endpoint: median survival time, higher = longer survival
Procedure, shortened: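 Compounds were tested in mice carrying transplantable tumors. Survival or tumor size was recorded, and each value is the treated-group measurement (T) divided by that of the vehicle-treated control group (C).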

[1] = dose: 12.5 mg/kg/injection, schedule: Q01DX009 (ip), vehicle: saline
[2] = dose: 25.0 mg/kg/injection, schedule: Q01DX009 (ip), vehicle: saline
[3] = dose: 25.0 mg/kg/injection, schedule: Q01DX009 (ip), vehicle: water
[4] = dose: 50.0 mg/kg/injection, schedule: Q01DX009 (ip), vehicle: saline
[5] = dose: 100.0 mg/kg/injection, schedule: Q01DX009 (ip), vehicle: water
[6] = dose: 100.0 mg/kg/injection, schedule: Q01DX009 (ip), vehicle: saline with Tween-80
[7] = dose: 100.0 mg/kg/injection, schedule: Q04DX003 (ip), vehicle: saline with Tween-80
[8] = dose: 200.0 mg/kg/injection, schedule: Q01DX009 (ip), vehicle: saline with Tween-80
[9] = dose: 200.0 mg/kg/injection, schedule: Q04DX003 (ip), vehicle: saline with Tween-80
[10] = dose: 400.0 mg/kg/injection, schedule: Q04DX003 (ip), vehicle: saline with Tween-80
[11] = dose: 25.0 mg/kg/injection, schedule: Q01DX009 (ip), vehicle: saline with Tween-80
[12] = dose: 50.0 mg/kg/injection, schedule: Q01DX009 (ip), vehicle: saline with Tween-80
[13] = dose: 12.5 mg/kg/injection, schedule: Q01DX009 (ip), vehicle: saline with Tween-80
[14] = dose: 100.0 mg/kg/injection, schedule: Q01DX009 (ip), vehicle: saline
[15] = dose: 200.0 mg/kg/injection, schedule: Q01DX009 (ip), vehicle: saline
[16] = dose: 400.0 mg/kg/injection, schedule: Q01DX009 (ip), vehicle: saline

O=P1(NCCCl)OCCCN1CCCl (stereo unspecified)
T/C [1]: 109 % of control
T/C [2]: 103 % of control and 111 % of control and 119 % of control
T/C [3]: 104 % of control and 121 % of control
T/C (dose: 25.0 mg/kg/injection, schedule: Q02DX009 (ip), vehicle: saline): 100 % of control and 107 % of control
T/C (dose: 25.0 mg/kg/injection, schedule: Q02DX009 (ip), vehicle: water): 114 % of control
T/C [4]: 90 % of control and 111 % of control and 116 % of control
T/C (dose: 50.0 mg/kg/injection, schedule: Q02DX009 (ip), vehicle: water): 124 % of control
T/C [5]: 169 % of control
T/C (dose: 200.0 mg/kg/injection, schedule: Q02DX009 (ip), vehicle: water): 122 % of control

CCOC(=O)C(=CN1CCCCC1)C(=O)OCC
T/C [6]: 99 % of control
T/C [7]: 95 % of control
T/C [8]: 100 % of control
T/C [9]: 97 % of control
T/C [10]: 95 % of control

Cc1c(Cl)cccc1NC(=O)C(c1ccccc1)c1ccccc1
T/C [11]: 99 % of control
T/C [12]: 86 % of control
T/C [6]: 91 % of control

CC(C)(C)OC(=O)n1cnc(CC(NC(=O)OCc2ccccc2)C(=O)O)c1 (stereo unspecified)
T/C [12]: 98 % of control
T/C [6]: 89 % of control
T/C [8]: 92 % of control

c1ccc(OP(Oc2ccccc2)c2ccccc2)cc1
T/C (dose: 50.0 mg/kg/injection, schedule: Q01DX009 (ip), vehicle: acetone): 113 % of control
T/C (dose: 100.0 mg/kg/injection, schedule: Q01DX009 (ip), vehicle: acetone): 100 % of control
T/C (dose: 200.0 mg/kg/injection, schedule: Q01DX009 (ip), vehicle: acetone): 100 % of control

C=CCc1cccc(OC)c1OCCN(CC)CC
T/C (dose: 5.0 mg/kg/injection, schedule: Q01DX009 (ip), vehicle: saline with Tween-80): 88 % of control
T/C (dose: 10.0 mg/kg/injection, schedule: Q01DX009 (ip), vehicle: saline with Tween-80): 100 % of control
T/C (dose: 20.0 mg/kg/injection, schedule: Q01DX009 (ip), vehicle: saline with Tween-80): 100 % of control

S=C=NCCc1ccccc1
T/C [13]: 111 % of control
T/C [11]: 114 % of control
T/C [12]: 96 % of control

CC(=O)[O][Pb]([CH2]C(C)C)([CH2]C(C)C)[CH2]C(C)C
T/C (dose: 0.09 mg/kg/injection, schedule: Q01DX009 (ip), vehicle: Klucel (hydroxypropylcellulose) (HPC)): 94 % of control
T/C (dose: 0.19 mg/kg/injection, schedule: Q01DX009 (ip), vehicle: Klucel (hydroxypropylcellulose) (HPC)): 98 % of control
T/C (dose: 0.38 mg/kg/injection, schedule: Q01DX009 (ip), vehicle: Klucel (hydroxypropylcellulose) (HPC)): 93 % of control
T/C (dose: 0.75 mg/kg/injection, schedule: Q01DX009 (ip), vehicle: Klucel (hydroxypropylcellulose) (HPC)): 88 % of control and 98 % of control

COB1OB(OC)OB(OC)O1
T/C [12]: 103 % of control
T/C [6]: 104 % of control
T/C [7]: 105 % of control
T/C [8]: 102 % of control
T/C [9]: 112 % of control
T/C (dose: 400.0 mg/kg/injection, schedule: Q01DX009 (ip), vehicle: saline with Tween-80): 98 % of control
T/C [10]: 110 % of control

Cc1ccc(C(C)(N=[N+]=[N-])c2ccccc2)cc1C (stereo unspecified)
T/C [11]: 94 % of control
T/C [12]: 93 % of control
T/C [6]: 90 % of control
T/C [8]: 90 % of control

ClCCN(CC#CCCCC#CCN(CCCl)CCCl)CCCl
T/C (dose: 1.56 mg/kg/injection, schedule: Q01DX009 (ip), vehicle: saline): 111 % of control
T/C (dose: 3.12 mg/kg/injection, schedule: Q01DX009 (ip), vehicle: saline): 123 % of control
T/C [1]: 173 % of control
T/C [2]: 156 % of control

CC(C)c1cccc(C(C)C)c1OC(=O)Nc1ccccc1Cl
T/C (dose: 100.0 mg/kg/injection, schedule: Q04DX003 (ip), vehicle: Klucel (hydroxypropylcellulose) (HPC)): 100 % of control
T/C (dose: 200.0 mg/kg/injection, schedule: Q04DX003 (ip), vehicle: Klucel (hydroxypropylcellulose) (HPC)): 96 % of control

c1ccc(COB(OCc2ccccc2)OCc2ccccc2)cc1
T/C [14]: 108 % of control
T/C [15]: 97 % of control
T/C [16]: 87 % of control

CCSc1ccc2c(cc1=O)[C@@H](NC1OC(CO)C(O)C(O)C1O)CCc1cc(OC)c(OC)c(OC)c1-2 (stereo partly specified)
T/C (dose: 50.0 mg/kg/injection, schedule: Q01DX009 (ip), vehicle: other): 101 % of control
T/C (dose: 100.0 mg/kg/injection, schedule: Q01DX009 (ip), vehicle: other): 109 % of control

CN1CCC23c4c5ccc(O)c4OC2C(O)C=CC3C1C5 (stereo unspecified)
T/C (dose: 32.0 mg/kg/injection, schedule: Q01DX009 (ip), vehicle: saline): 114 % of control
T/C (dose: 64.0 mg/kg/injection, schedule: Q01DX009 (ip), vehicle: saline): 111 % of control
T/C (dose: 128.0 mg/kg/injection, schedule: Q01DX009 (ip), vehicle: saline): 100 % of control
T/C (dose: 256.0 mg/kg/injection, schedule: Q01DX009 (ip), vehicle: saline): 94 % of control

NC(C/[N+]([O-])=N/O)C(=O)O (stereo unspecified)
T/C (dose: 15.6 mg/kg/injection, schedule: Q01DX009 (ip), vehicle: saline): 97 % of control
T/C (dose: 15.6 mg/kg/injection, schedule: Q01DX009 (ip), vehicle: water): 105 % of control
T/C (dose: 15.6 mg/kg/injection, schedule: Q04DX003 (ip), vehicle: saline): 100 % of control
T/C (dose: 15.6 mg/kg/injection, schedule: Q04DX003 (ip), vehicle: water): 102 % of control
T/C (dose: 16.0 mg/kg/injection, schedule: Q01DX009 (ip), vehicle: saline): 117 % of control
T/C (dose: 31.3 mg/kg/injection, schedule: Q01DX009 (ip), vehicle: saline): 102 % of control and 105 % of control
T/C (dose: 31.3 mg/kg/injection, schedule: Q01DX009 (ip), vehicle: water): 108 % of control
T/C (dose: 31.3 mg/kg/injection, schedule: Q04DX003 (ip), vehicle: saline): 97 % of control
T/C (dose: 31.3 mg/kg/injection, schedule: Q04DX003 (ip), vehicle: water): 97 % of control
T/C (dose: 62.5 mg/kg/injection, schedule: Q01DX009 (ip), vehicle: saline): 111 % of control
T/C (dose: 62.5 mg/kg/injection, schedule: Q01DX009 (ip), vehicle: water): 111 % of control
T/C (dose: 62.5 mg/kg/injection, schedule: Q04DX003 (ip), vehicle: saline): 100 % of control and 95 % of control
T/C (dose: 62.5 mg/kg/injection, schedule: Q04DX003 (ip), vehicle: water): 108 % of control
T/C [7]: 100 % of control
T/C (dose: 125.0 mg/kg/injection, schedule: Q04DX003 (ip), vehicle: saline): 97 % of control and 111 % of control
T/C (dose: 125.0 mg/kg/injection, schedule: Q04DX003 (ip), vehicle: water): 111 % of control
T/C [9]: 100 % of control
T/C (dose: 250.0 mg/kg/injection, schedule: Q04DX003 (ip), vehicle: saline): 100 % of control and 109 % of control
T/C (dose: 250.0 mg/kg/injection, schedule: Q04DX003 (ip), vehicle: water): 111 % of control
T/C [10]: 106 % of control
T/C (dose: 500.0 mg/kg/injection, schedule: Q04DX003 (ip), vehicle: saline): 107 % of control
T/C (dose: 500.0 mg/kg/injection, schedule: Q04DX003 (ip), vehicle: water): 97 % of control

COc1cc(C[C@H]2c3cc(OC)c(OC)cc3CCN2C)c(Oc2cc3c(cc2OC)-c2c(OC)c(OC)cc4c2[C@H](C3)N(C)CC4)cc1OC
T/C (dose: 3.0 mg/kg/injection, schedule: Q01DX009 (ip), vehicle: saline with Tween-80): 93 % of control
T/C (dose: 6.25 mg/kg/injection, schedule: Q01DX009 (ip), vehicle: saline with Tween-80): 92 % of control and 95 % of control
T/C [13]: 88 % of control and 97 % of control and 107 % of control
T/C (dose: 75.0 mg/kg/injection, schedule: Q01DX009 (ip), vehicle: saline with Tween-80): 87 % of control

CCCCCCCCCCCCCCCC(=O)N(CCC#N)C(C)(C)CCC(C)(C)N(CCC#N)C(=O)CCCCCCCCCCCCCCC
T/C (dose: 25.0 mg/kg/injection, schedule: Q01DX009 (ip), vehicle: Klucel (hydroxypropylcellulose) (HPC)): 90 % of control
T/C (dose: 50.0 mg/kg/injection, schedule: Q01DX009 (ip), vehicle: Klucel (hydroxypropylcellulose) (HPC)): 98 % of control
T/C (dose: 100.0 mg/kg/injection, schedule: Q01DX009 (ip), vehicle: Klucel (hydroxypropylcellulose) (HPC)): 91 % of control

CNNCc1ccc(/C=N/NC(N)=S)cc1
T/C (dose: 12.5 mg/kg/injection, schedule: Q01DX009 (ip), vehicle: water): 105 % of control
T/C [3]: 100 % of control
T/C (dose: 50.0 mg/kg/injection, schedule: Q01DX009 (ip), vehicle: water): 99 % of control
T/C [5]: 97 % of control

CC(=O)OCc1cccnc1
T/C [4]: 97 % of control
T/C [14]: 101 % of control
T/C [15]: 106 % of control
T/C [16]: 107 % of control
